Experimental findings from US4927919A, “Chartreusin derivatives and salts thereof” (Ishihara Sangyo Kaisha, Ltd., priority 1985, dated 1990) are described below.

One series deals with P-388 leukemia cells. In words: Antitumor activity against P-388 leukemia cells (i.p. implanted, i.v. drug). In kind it is in vivo, BDF1 mice. The following applies: Mus musculus, P388, iv, 720 h, i.v., 30-day observation, read-out: T/C of MST; for response vs control in vivo at 20 mg/kg: dose b: 20 mg/kg/d × 3 (days 1, 5, 9); for response vs control in vivo at 40 mg/kg: dose c: 40 mg/kg/d × 3 (days 1, 5, 9); for response vs control in vivo at 80 mg/kg: dose f: 80 mg/kg/d × 3 (days 1, 5, 9); for response vs control in vivo at 40 mg/kg/day: dose c': 40 mg/kg/d × 2 (days 1, 5); for response vs control in vivo at 60 mg/kg: dose e: 60 mg/kg/d × 3 (days 1, 5, 9). The procedure: BDF1 mice were implanted intraperitoneally with P-388 leukemia cells at a rate of 1×10^6 cells/mouse, and each drug to be tested was administered intravenously on the first, fifth and ninth days, or on the first and fifth days after the implantation. […] The T/C (%) was calculated based on the following equation: [formula]
The drugs tested were as follows: solutions prepared by dissolving each of compound Nos. 34, 36 and 43 to 46 in physiological saline; suspension or solutions prepared by dissolving each of compound Nos. 35, 38 and 49 to 55 in dimethylacetamide, followed by adding thereto a small amount of a surface active agent (e.g., Tween-80) and then physiological saline; and suspension or solutions prepared by mixing each of the other compounds and a small amount of a surface active agent (e.g., Tween-80), followed by adding thereto physiological saline.

Series [1] is described as follows: Acute toxicity (LD50, single intravenous administration). On the set-up: species or system day mice. The following applies: mouse, in vivo, mice, single i.v. The text has this:
In Table 15 are shown acute toxicity values (LD50, mg/kg) in day mice in the case of intravenously administering (once) each of the compounds of this invention in the form of preparations shown in the Preparation Examples shown in Table 16.

Where a name gives a salt, the structure may show the parent alone.

`CNCCC(=O)Oc1c2cccc(OC3OC(C)C4OC(c5ccccc5)OC4C3OC3OC(C)C(N)C(OC)C3O)c2c2oc(=O)c3c(C)ccc4oc(=O)c1c2c43` (stereo not shown) [Compound 43]: in the series on P-388 leukemia cells, the response vs control in vivo at 20 mg/kg is 150% and the response vs control in vivo at 40 mg/kg is 230%. Also, the LD50 in series [1] (Preparation Example 8) is at least 40 mg/kg.
Turning to `CCn1cc(C(=O)Oc2c3cccc(OC4OC(C)C5OC(C)(C)OC5C4OC4OC(C)C(O)C(OC)C4O)c3c3oc(=O)c4c(C)ccc5oc(=O)c2c3c54)c(=O)c2ccc(C)nc21` (stereo not shown) [Compound 107], the response vs control in vivo at 80 mg/kg in the series on P-388 leukemia cells stood at 134%. In addition, in series [1] (Preparation Example 4), the LD50 was at least 80 mg/kg.
For the molecule `COC1C(N)C(C)OC(OC2C(Oc3cccc4c(OC(=O)Cc5ccccc5)c5c(=O)oc6ccc(C)c7c(=O)oc(c34)c5c67)OC(C)C3OC(c4ccccc4)OC32)C1O` (stereo not shown) [Compound 50], the response vs control in vivo at 20 mg/kg/day with P-388 leukemia cells (dose b': 20 mg/kg/d × 2 (days 1, 5)) amounted to 165%. For the same molecule, the response vs control in vivo at 40 mg/kg/day in the series on P-388 leukemia cells worked out at 208%. This molecule also returned an LD50 in series [1] (Preparation Example 7) of at least 40 mg/kg.
In the case of `COC1C(N)C(C)OC(OC2C(Oc3cccc4c(OC(=O)CC(C)C)c5c(=O)oc6ccc(C)c7c(=O)oc(c34)c5c67)OC(C)C3OC(c4ccccc4)OC32)C1O` (stereo not shown) [Compound 39, 6-O-(3-methyl-n-butyryl)-3',4',-O-benzylidene-4"-epiamino-4"-deoxy-chartreusin hydrochloride], in the series with P-388 leukemia cells, the response vs control in vivo at 40 mg/kg came out at 207% and the response vs control in vivo at 60 mg/kg amounted to 240%. This molecule yielded an LD50 in series [1] (Preparation Example 9) of at least 60 mg/kg.
With `COC1C(O)C(C)OC(OC2C(Oc3cccc4c(OC(=O)c5cc(-c6ccccc6)nc6ccccc56)c5c(=O)oc6ccc(C)c7c(=O)oc(c34)c5c67)OC(C)C3OC(c4ccccc4)OC32)C1O` (stereo not shown) [Compound 28], in the series with P-388 leukemia cells, the response vs control in vivo at 20 mg/kg is 197% and the response vs control in vivo at 80 mg/kg amounted to 192%. In series [1] (Preparation Example 1), the LD50 is at least 20 mg/kg.
With `COC1C(N)C(C)OC(OC2C(Oc3cccc4c(OC(=O)c5cccc(C(F)(F)F)c5)c5c(=O)oc6ccc(C)c7c(=O)oc(c34)c5c67)OC(C)C3OC(c4ccccc4)OC32)C1O` (stereo not shown) [Compound 53], in the series with P-388 leukemia cells, the response vs control in vivo at 20 mg/kg came to 131% and the response vs control in vivo at 40 mg/kg came out at 165%. Moreover, in series [1] (Preparation Example 6), the LD50 was at least 40 mg/kg.
Turning to `COC1C(O)C(C)OC(OC2C(Oc3cccc4c(OC(=O)c5cc6cc(OCc7ccccc7)ccc6[nH]5)c5c(=O)oc6ccc(C)c7c(=O)oc(c34)c5c67)OC(C)C3OC(c4ccccc4)OC32)C1O` (stereo not shown) [Compound 101], in the series with P-388 leukemia cells, the response vs control in vivo at 60 mg/kg was determined as 191%. This molecule also came in with a median lethal dose (LD50) in series [1] (Preparation Example 2) of at least 60 mg/kg.
As to `COC1C(N)C(C)OC(OC2C(Oc3cccc4c(OC(=O)C5CC5C)c5c(=O)oc6ccc(C)c7c(=O)oc(c34)c5c67)OC(C)C3OC(c4ccccc4)OC32)C1O` (stereo not shown) [Compound 49], in the series on P-388 leukemia cells, the response vs control in vivo at 40 mg/kg/day was 153%. Further, the LD50 in series [1] (Preparation Example 6) was at least 40 mg/kg.
In the case of `COC1C(O)C(C)OC(OC2C(Oc3cccc4c(OC(=O)CCCCC5CCSS5)c5c(=O)oc6ccc(C)c7c(=O)oc(c34)c5c67)OC(C)C3OC(c4ccccc4)OC32)C1O` (stereo not shown) [Compound 15], in the series with P-388 leukemia cells, the response vs control in vivo at 20 mg/kg was 153% and the response vs control in vivo at 40 mg/kg amounted to 201%. In series [1] (Preparation Example 2), this molecule registered an LD50 of at least 40 mg/kg.
Consider `COC1C(O)C(C)OC(OC2C(Oc3cccc4c(OC(=O)c5ocnc5C)c5c(=O)oc6ccc(C)c7c(=O)oc(c34)c5c67)OC(C)C3OC(c4ccccc4)OC32)C1O` (stereo not shown) [Compound 103], for which, in the series on P-388 leukemia cells, the response vs control in vivo at 60 mg/kg came to 236%. Besides, the response vs control in vivo at 30 mg/kg in the series on P-388 leukemia cells (dose j: 30 mg/kg/d × 3 (days 1, 5, 9)) came to 210%. The molecule also showed an LD50 in series [1] (Preparation Example 2) of at least 60 mg/kg.
For `COC1C(O)C(C)OC(OC2C(Oc3cccc4c(OC(=O)c5ccc[nH]5)c5c(=O)oc6ccc(C)c7c(=O)oc(c34)c5c67)OC(C)C3OC(c4cccc(Br)c4)OC32)C1O` (stereo not shown) [Compound 31], in the series with P-388 leukemia cells, the response vs control in vivo at 40 mg/kg stood at 128%. The molecule also had an LD50 in series [1] (Preparation Example 1) of at least 40 mg/kg.
Regarding `COC1C(O)C(C)OC(OC2C(Oc3cccc4c(OC(=O)c5ccc(C)s5)c5c(=O)oc6ccc(C)c7c(=O)oc(c34)c5c67)OC(C)C3OC(C)(C)OC32)C1O` (stereo not shown) [Compound 12], the response vs control in vivo at 80 mg/kg in the series with P-388 leukemia cells was 194%. The LD50 in series [1] (Preparation Example 3) is at least 80 mg/kg.

The term LD50 denotes the dose at which mortality reaches 50%. Read a high LD50 as a less toxic substance.
